Data published in US20150218212A1, “FLUORINATED EPOXYKETONE-BASED TETRAPEPTIDE COMPOUNDS AND USES THEREOF AS PROTEASOME INHIBITORS” (FLUORINOV PHARMA INC., priority 2012, published 2015).

Key:
Format in all cases: cell-based, human
[1] = tested on: SF-539; assay: NCI screening panel, SF-539 (CNS Cancer)
Method: (§1) Representative compounds of Formula I were screened using the National Cancer Institute (NCI) screening panel, which consists of a panel of human tumor cell lines, representing leukemia, melanoma, and cancers of the lung, colon, ovary, breast, prostate and renal system.
(§2) After 24 h, two plates of each cell line are fixed in situ with TCA, to represent a measurement of the cell population for each cell line at the time of drug addition (Tz). Experimental drugs are solubilised in dimethyl sulfoxide at 400-fold the desired final maximum test concentration and stored frozen prior to use. At the time of drug addition, an aliquot of frozen concentrate is thawed and diluted to twice the desired final maximum test concentration with complete medium containing 50 μg/mL gentamicin. Additional four, 10-fold or ½ log serial dilutions are made to provide a total of five drug concentrations plus control. Aliquots of 100 μl of these different drug dilutions are added to the appropriate microtiter wells already containing 100 μl of medium, resulting in the required final drug concentrations.
(§3) Following drug addition, the plates are incubated for an additional 48 h at 37° C., 5% CO2, 95% air, and 100% relative humidity. For adherent cells, the assay is terminated by the addition of cold TCA (trichloroacetic acid). Cells are fixed in situ by the gentle addition of 50 μl of cold 50% (w/v) TCA (final concentration, 10% TCA) and incubated for 60 minutes at 4° C. The supernatant is discarded, and the plates are washed five times with tap water and air dried. Sulforhodamine B (SRB) solution (100 μl) at 0.4% (w/v) in 1% acetic acid is added to each well, and plates are incubated for 10 minutes at room temperature. After staining, unbound dye is removed by washing five times with 1% acetic acid and the plates are air dried. Bound stain is subsequently solubilised with 10 mM trizma base, and the absorbance is read on an automated plate reader at a wavelength of 515 nm. For suspension cells, the methodology is the same except that the assay is terminated by fixing settled cells at the bottom of the wells by gently adding 50 μl of 80% TCA (final concentration, 16% TCA). Using the seven absorbance measurements [time zero, (Tz), control growth, (C), and test growth in the presence of drug at the five concentration levels (Ti)], the percentage growth is calculated at each of the drug concentrations levels. Percentage growth inhibition is calculated as: [(Ti−Tz)/(C−Tz)]×100 for concentrations for which Ti>/=Tz and [(Ti−Tz)/Tz]×100 for concentrations for which Ti<Tz.
(§4) Three dose response parameters are calculated for each experimental agent. Growth inhibition of 50% (GI50) is calculated from [(Ti−Tz)/(C−Tz)]×100=50, which is the drug concentration resulting in a 50% reduction in the net protein increase (as measured by SRB staining) in control cells during the drug incubation. The drug concentration resulting in total growth inhibition (TGI) is calculated from Ti=Tz. The LC50 (concentration of drug resulting in a 50% reduction in the measured protein at the end of the drug treatment as compared to that at the beginning) indicating a net loss of cells following treatment is calculated from [(Ti−Tz)/Tz]×100=−50. Values are calculated for each of these three parameters if the level of activity is reached. However, if the effect is not reached or is exceeded, the value for that parameter is expressed as greater or less than the maximum or minimum concentration tested.

[2] = tested on: U251; assay: NCI screening panel, U251 (CNS Cancer)
Method: as §1, §2, §3, §4

[3] = tested on: UACC-257; assay: NCI screening panel, UACC-257 (Melanoma)
Method: as §1, §2, §3, §4

[4] = tested on: LOX IMVI; assay: NCI screening panel, LOX IMVI (Melanoma)
Method: as §1, §2, §3, §4

[5] = tested on: SK-OV-3; assay: NCI screening panel, SK-OV-3 (Ovarian Cancer)
Method: as §1, §2, §3, §4

[6] = tested on: A549/ATCC; assay: NCI screening panel, A549/ATCC (Non-Small Cell Lung Cancer)
Method: as §1, §2, §3, §4

[7] = tested on: UACC-62; assay: NCI screening panel, UACC-62 (Melanoma)
Method: as §1, §2, §3, §4

[8] = tested on: HCT-15; assay: NCI screening panel, HCT-15 (Colon Cancer)
Method: as §1, §2, §3, §4

[9] = tested on: SF-268; assay: NCI screening panel, SF-268 (CNS Cancer)
Method: as §1, §2, §3, §4

[10] = tested on: BT-549; assay: NCI screening panel, BT-549 (Breast Cancer)
Method: as §1, §2, §3, §4

[11] = tested on: SN12C; assay: NCI screening panel, SN12C (Renal Cancer)
Method: as §1, §2, §3, §4

[12] = tested on: M14; assay: NCI screening panel, M14 (Melanoma)
Method: as §1, §2, §3, §4

[13] = tested on: HCT-116; assay: NCI screening panel, HCT-116 (Colon Cancer)
Method: as §1, §2, §3, §4

[14] = tested on: NCI-H522; assay: NCI screening panel, NCI-H522 (Non-Small Cell Lung Cancer)
Method: as §1, §2, §3, §4

[15] = tested on: SR; assay: NCI screening panel, SR (Leukemia)
Method: as §1, §2, §3, §4

[16] = tested on: HCC-2998; assay: NCI screening panel, HCC-2998 (Colon Cancer)
Method: as §1, §2, §3, §4

[17] = tested on: NCI-H23; assay: NCI screening panel, NCI-H23 (Non-Small Cell Lung Cancer)
Method: as §1, §2, §3, §4

[18] = tested on: SK-MEL-2; assay: NCI screening panel, SK-MEL-2 (Melanoma)
Method: as §1, §2, §3, §4

[19] = tested on: RPMI-8226; assay: NCI screening panel, RPMI-8226 (Leukemia)
Method: as §1, §2, §3, §4

SMILES: CC(C)C[C@H](NC(=O)[C@H](COC(F)F)NC(=O)CN1CCOCC1)C(=O)N[C@@H](COC(F)F)C(=O)N[C@@H](CC(C)C)C(=O)[C@@]1(C)CO1 [Example 1, (2S)—N-[(1S)-1-(difluoromethoxymethyl)-2-[[(1S)-3-methyl-1-[(2R)-2-methyloxirane-2-carbonyl]butyl]amino]-2-oxo-ethyl]-2-[[(2S)-3-(difluoromethoxy)-2-[(2-morpholinoacetyl)amino]propanoyl]amino]-4-methyl-pentanamide]
- Log10GI50 [1]: −7.78
- Log10LC50 [1]: −6.62
- Log10TGI50 [1]: −7.35
- Log10GI50 [2]: −7.58
- Log10LC50 [2]: >−4.00
- Log10TGI50 [2]: −6.75
- Log10GI50 [3]: −7.01
- Log10LC50 [3]: >−4.00
- Log10TGI50 [3]: −5.62
- Log10GI50 [4]: −7.85
- Log10LC50 [4]: −7.16
- Log10TGI50 [4]: −7.51
- Log10GI50 [5]: −7.15
- Log10TGI50 [5]: −6.36
- Log10GI50 [6]: −7.46
- Log10LC50 [6]: >−4.00
- Log10TGI50 [6]: −5.49
- Log10GI50 [7]: −7.60
- Log10LC50 [7]: >−4.00
- Log10TGI50 [7]: −6.95
- Log10GI50 [8]: −5.97
- Log10LC50 [8]: >−4.00
- Log10TGI50 [8]: >−4.00
- Log10GI50 [9]: −7.65
- Log10LC50 [9]: >−4.00
- Log10TGI50 [9]: −7.17
- Log10GI50 [10]: −7.85
- Log10LC50 [10]: −6.61
- Log10TGI50 [10]: −7.40
- Log10GI50 [11]: −7.31
- Log10LC50 [11]: −4.88
- Log10TGI50 [11]: −6.62
- Log10GI50 [12]: −7.25
- Log10LC50 [12]: >−4.00
- Log10TGI50 [12]: −6.31
- Log10GI50 [13]: -8.00
- Log10LC50 [13]: −6.33
- Log10TGI50 [13]: −7.34
- Log10GI50 [14]: −7.96
- Log10LC50 [14]: −4.04
- Log10TGI50 [14]: −7.05
- Log10GI50 [15]: −7.52
- Log10LC50 [15]: >−4.00
- Log10TGI50 [15]: −4.61
- Log10GI50 [16]: −7.74
- Log10LC50 [16]: −7.16
- Log10TGI50 [16]: −7.45
- Log10GI50 [17]: −7.56
- Log10LC50 [17]: >−4.00
- Log10TGI50 [17]: −6.68
- Log10GI50 [18]: −7.60
- Log10LC50 [18]: >−4.00
- Log10TGI50 [18]: −7.03
- Log10GI50 [19]: −7.56
- Log10LC50 [19]: >−4.00
- Log10TGI50 [19]: −7.05
